Experimental data taken from US20050032873A1, “3-Amino chroman and 2-amino tetralin derivatives” (Wyeth, priority 2003, published 2005).
Where two headings read alike, the source gives them in different places.

Tests used:
5-HT1A receptor [1] = biological target: T1, 5-HT1A receptor (Homo sapiens, UniProt P08908); assay: cAMP accumulation assay, 5-HT1A function; format: cell-based; settings: for EC50: cells marked EC50 (agonist); for 5-HT1A Function cAMP (Emax) / Emax: in brackets after EC50 or IC50; for IC50: cells marked IC50 (antagonist), read-out: 5-HT1A Function cAMP IC50; for Emax: read-out: 5-HT1A Function cAMP (Emax)
T1 sequence (P08908 1-422): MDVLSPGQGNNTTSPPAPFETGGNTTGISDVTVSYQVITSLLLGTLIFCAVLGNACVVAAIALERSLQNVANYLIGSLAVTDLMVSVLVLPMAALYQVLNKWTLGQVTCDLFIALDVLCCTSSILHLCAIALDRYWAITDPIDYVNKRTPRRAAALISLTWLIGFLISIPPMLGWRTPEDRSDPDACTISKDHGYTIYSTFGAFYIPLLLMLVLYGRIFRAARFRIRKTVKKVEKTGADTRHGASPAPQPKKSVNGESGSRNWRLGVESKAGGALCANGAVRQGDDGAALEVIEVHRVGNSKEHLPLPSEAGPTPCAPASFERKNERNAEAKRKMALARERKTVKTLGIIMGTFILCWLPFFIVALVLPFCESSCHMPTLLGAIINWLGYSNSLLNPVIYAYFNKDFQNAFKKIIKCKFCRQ

5-HT1A receptor [2] = biological target: T1, 5-HT1A receptor; assay: 5-HT1A receptor affinity: displacement of [3H] 8-OH-DPAT; format: binding; set-up: expressed in transfected cells; settings: displacement of [3H] 8-OH-DPAT, CHO cells stably transfected with human 5-HT1A receptors
serotonin transporter = biological target: T2, serotonin transporter (Rattus norvegicus, UniProt P31652); assay: 5-HT transporter affinity: displacement of 3H-paroxetine from male rat cortical membranes; format: binding; settings: displacement of 3H-paroxetine, male rat cortical membranes
T2 construct: displace ^3H-paroxetine from male rat cortical membranes; from tissue; host or cells: male rat cortical membranes

[3] = biological target: T3, cloned human 5-HT1A receptors (Homo sapiens, UniProt P08908); assay: 35S-GTPγS binding assay, 5-HT1A function; format: biochemical; settings: for EC50: agonist potency; for IC50: antagonist potency, reversal of 8-OH-DPAT, read-out: 5-HT1A Function GTPγS IC50
T3 construct: expressed in transfected cells
T3 sequence (P08908 1-422): T1 sequence (P08908 1-422)

[4] = read-out: 5-HT1A Receptor Affinity Ki
[5] = read-out: 5-HT Transporter Affinity Ki
[6] = maximum stimulatory effect, in brackets after EC50, read-out: 5-HT1A Function GTPγS (Emax)
[7] = maximum inhibitory effect, in brackets after IC50, read-out: 5-HT1A Function GTPγS (Imax)

T2 sequence (P31652 whole entry): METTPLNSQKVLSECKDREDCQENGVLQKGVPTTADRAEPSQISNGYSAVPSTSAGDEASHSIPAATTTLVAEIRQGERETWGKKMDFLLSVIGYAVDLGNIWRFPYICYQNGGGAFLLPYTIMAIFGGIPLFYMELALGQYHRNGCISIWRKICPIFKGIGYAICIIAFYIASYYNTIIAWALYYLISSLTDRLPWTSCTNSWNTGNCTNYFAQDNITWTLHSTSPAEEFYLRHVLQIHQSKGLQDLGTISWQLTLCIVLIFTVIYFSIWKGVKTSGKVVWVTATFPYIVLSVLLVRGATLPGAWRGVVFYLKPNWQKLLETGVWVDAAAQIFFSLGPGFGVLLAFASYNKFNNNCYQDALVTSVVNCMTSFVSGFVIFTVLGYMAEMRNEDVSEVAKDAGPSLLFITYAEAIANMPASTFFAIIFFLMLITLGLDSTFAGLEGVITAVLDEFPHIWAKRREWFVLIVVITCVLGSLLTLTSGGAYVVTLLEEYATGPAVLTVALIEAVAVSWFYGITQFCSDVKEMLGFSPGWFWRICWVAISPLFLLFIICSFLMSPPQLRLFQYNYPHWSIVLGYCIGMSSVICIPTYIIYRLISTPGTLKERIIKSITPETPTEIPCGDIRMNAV

Structure (SMILES): CC(CCc1c[nH]c2ccc(F)cc12)N(CC1CC1)C1COc2c(F)ccc(C(N)=O)c2C1 (single isomer, unassigned; (+)) [Compound 15b, (+)-3-{(cyclopropylmethyl)[3-(5-fluoro-1H-indol-3-yl)-1-methylpropyl]amino}-8-fluorochromane-5-carboxamide]
- EC50 (5-HT1A receptor [1]): 32.4 nM
- 5-HT1A Function cAMP (Emax) (5-HT1A receptor [1]): 73%
- Ki (5-HT1A receptor [2]; [4]): 31.7 nM
- Ki (serotonin transporter; [5]): 46.7 nM
- EC50 [3]: 108 nM
- Emax [3, 6]: 32%

Structure (SMILES): CNC(=O)c1ccc(F)c2c1CC(N(CCCCc1c[nH]c3ccc(F)cc13)CC1CC1)CO2 (centres unmarked) [Compound 94, 3-{(cyclopropylmethyl)[4-(5-fluoro-1H-indol-3-yl)butyl]amino}-8-fluoro-N-methylchromane-5-carboxamide]
- IC50 (5-HT1A receptor [1]): 58.4 nM
- Emax (5-HT1A receptor [1]): 0%
- Ki (5-HT1A receptor [2]; [4]): 1.66 nM
- Ki (serotonin transporter; [5]): 1.27 nM
- IC50 [3]: 141 nM
- Emax [3, 7]: 100%

Structure (SMILES): NC(=O)c1ccc(F)c2c1CC(N(CCCc1c[nH]c3c(Cl)cccc13)CC1CC1)CO2 (centres unmarked) [Compound 112, 3-[[3-(7-chloro-1H-indol-3-yl)propyl](cyclopropylmethyl)amino]-8-fluorochromane-5-carboxamide]
- IC50 (5-HT1A receptor [1]): 56.8 nM
- Emax (5-HT1A receptor [1]): 0%
- Ki (5-HT1A receptor [2]; [4]): 0.74 nM
- Ki (serotonin transporter; [5]): 61 nM
- IC50 [3]: 241 nM
- Emax [3, 7]: 100%

Structure (SMILES): CCN(CCCc1c[nH]c2c(F)cc(F)cc12)C1COc2c(C(N)=O)ccc(F)c2C1 (centres unmarked) [Compound 132, 3-[[3-(5,7-difluoro-1H-indol-3-yl)propyl](ethyl)amino]-5-fluorochromane-8-carboxamide]
- EC50 (5-HT1A receptor [1]): 112 nM
- Emax (5-HT1A receptor [1]): 63%
- Ki (5-HT1A receptor [2]; [4]): 95.6 nM
- Ki (serotonin transporter; [5]): 50.3 nM
- EC50 [3]: 2210 nM
- Emax [3, 6]: 98%

Structure (SMILES): CNC(=O)c1ccc(F)c2c1CC(N(CCCCc1c[nH]c3ccc(F)cc13)C1CCC1)CO2 (centres unmarked) [Compound 95, 3-{cyclobutyl[4-(5-fluoro-1H-indol-3-yl)butyl]amino}-8-fluoro-N-methylchromane-5-carboxamide]
- IC50 (5-HT1A receptor [1]): 121 nM
- Emax (5-HT1A receptor [1]): 0%
- Ki (5-HT1A receptor [2]; [4]): 10 nM
- Ki (serotonin transporter; [5]): 6.4 nM
- IC50 [3]: 422 nM
- Emax [3, 7]: 100%

Structure (SMILES): CCCN(CCc1coc2c(OC)cccc12)C1COc2c(F)ccc(C(N)=O)c2C1 (centres unmarked) [Compound 158, 8-fluoro-3-[[2-(7-methoxy-1-benzofuran-3-yl)ethyl](propyl)amino]chromane-5-carboxamide]
- Emax (5-HT1A receptor [1]): 0%
- Ki (5-HT1A receptor [2]; [4]): 232 nM
- Ki (serotonin transporter; [5]): 120 nM
- EC50 [3]: 10600 nM
- Emax [3, 6]: 59%

Structure (SMILES): CCCN(CCCc1csc2ccc(F)cc12)C1COc2cccc(OC)c2C1 (centres unmarked) [Compound 19, N-[3-(5-fluoro-1-benzothien-3-yl)propyl]-5-methoxy-N-propylchroman-3-amine]
- EC50 (5-HT1A receptor [1]): 81 nM
- Emax (5-HT1A receptor [1]): 86.5%
- Ki (5-HT1A receptor [2]; [4]): 16 nM
- Ki (serotonin transporter; [5]): 405 nM
- EC50 [3]: 317 nM
- Emax [3, 6]: 100%

Structure (SMILES): COC(=O)c1cccc2c1CC(N(CCCc1c[nH]c3c(F)cc(F)cc13)C1CCC1)CO2 (centres unmarked) [Compound 136, Methyl 3-{cyclobutyl[3-(5,7-difluoro-1H-indol-3-yl)propyl]amino}chromane-5-carboxylate]
- EC50 (5-HT1A receptor [1]): 635 nM
- Emax (5-HT1A receptor [1]): 89%
- Ki (5-HT1A receptor [2]; [4]): 27.6 nM
- Ki (serotonin transporter; [5]): 203 nM
- EC50 [3]: 1330 nM
- Emax [3, 6]: 95%

Structure (SMILES): NC(=O)c1ccc(F)c2c1CC(N(CCCc1c[nH]c3c(Cl)cccc13)C1CCC1)CO2 (centres unmarked) [Compound 111, 3-[[3-(7-chloro-1H-indol-3-yl)propyl](cyclobutyl)amino]-8-fluorochromane-5-carboxamide]
- IC50 (5-HT1A receptor [1]): 1060 nM
- Emax (5-HT1A receptor [1]): 0%
- Ki (5-HT1A receptor [2]; [4]): 26 nM
- Ki (serotonin transporter; [5]): 66 nM
- IC50 [3]: 1600 nM
- Emax [3, 7]: 100%

Structure (SMILES): CCN(CCCc1csc2ccccc12)C1COc2cccc(OC)c2C1 (centres unmarked) [Compound 18, N-[3-(1-benzothien-3-yl)propyl]-N-ethyl-5-methoxychroman-3-amine]
- EC50 (5-HT1A receptor [1]): 11 nM
- Emax (5-HT1A receptor [1]): 93.5%
- Ki (5-HT1A receptor [2]; [4]): 3.72 nM
- Ki (serotonin transporter; [5]): 127 nM
- EC50 [3]: 232 nM
- Emax [3, 6]: 100%

Structure (SMILES): COc1ccc2[nH]cc(CCCN(C3CCC3)C3COc4c(F)ccc(C(N)=O)c4C3)c2c1 (centres unmarked) [Compound 107, 3-{cyclobutyl[3-(5-methoxy-1H-indol-3-yl)propyl]amino}-8-fluorochromane-5-carboxamide]
- IC50 (5-HT1A receptor [1]): 45.1 nM
- Emax (5-HT1A receptor [1]): 0%
- Ki (5-HT1A receptor [2]; [4]): 1.19 nM
- Ki (serotonin transporter; [5]): 834 nM
- IC50 [3]: 253 nM
- Emax [3, 7]: 100%

Structure (SMILES): CCN(CCc1c[nH]c2ccc(F)cc12)C1CCc2cccc(OC)c2C1 (centres unmarked) [Compound 49, N-ethyl-N-[2-(5-fluoro-1H-indol-3-yl)ethyl]-N-(8-methoxy-1,2,3,4-tetrahydronaphthalen-2-yl)amine]
- EC50 (5-HT1A receptor [1]): 35.5 nM
- Emax (5-HT1A receptor [1]): 93%
- Ki (5-HT1A receptor [2]; 5-HT1A Receptor Affinity Ki (nM)): 7.62 nM
- Ki (serotonin transporter; 5-HT Transporter Affinity Ki (nM)): 6.5 nM
- EC50 [3]: 15 nM
- Emax [3, 6]: 88%

Structure (SMILES): NC(=O)c1ccc(F)c2c1C[C@@H](N(CCCCc1c[nH]c3ccc(F)cc13)C1CCC1)CO2 [Compound 83a, (3R)-3-{cyclobutyl[4-(5-fluoro-1H-indol-3-yl)butyl]amino}-8-fluorochromane-5-carboxamide]
- IC50 (5-HT1A receptor [1]): 173 nM
- Emax (5-HT1A receptor [1]): 0%
- Ki (5-HT1A receptor [2]; [4]): 3.43 nM
- Ki (serotonin transporter; [5]): 13.2 nM
- IC50 [3]: 505 nM
- Emax [3, 7]: 100%

Structure (SMILES): COc1cccc2c1CC(N(CCCc1c[nH]c3ccc(F)cc13)C(C)C)CO2 (centres unmarked) [Compound 40, N-[3-(5-fluoro-1H-indol-3-yl)propyl]-N-isopropyl-N-(5-methoxy-3,4-dihydro-2H-chromen-3-yl)amine]
- Emax (5-HT1A receptor [1]): 0%
- Ki (5-HT1A receptor [2]; [4]): 80.8 nM
- Ki (serotonin transporter; [5]): 3.8 nM
- IC50 [3]: 3770 nM
- Emax [3, 7]: 46%

Structure (SMILES): CCCN(C1COc2cccc(OC)c2C1)[C@H]1CC[C@@H](c2c[nH]c3ccc(F)cc32)CC1 (relative stereo) [Compound 182, cis-N-[4-(5-fluoro-1H-indol-3-yl)cyclohexyl]-5-methoxy-N-propylchroman-3-amine]
- EC50 (5-HT1A receptor [1]): 184 nM
- Emax (5-HT1A receptor [1]): 65%
- Ki (5-HT1A receptor [2]; [4]): 237 nM
- Ki (serotonin transporter; [5]): 128 nM
- EC50 [3]: 893 nM
- Emax [3, 6]: 64.5%

Structure (SMILES): CCN(CCc1coc2c(OC)cccc12)C1COc2c(F)ccc(C(N)=O)c2C1 (centres unmarked) [Compound 157, 3-{ethyl[2-(7-methoxy-1-benzofuran-3-yl)ethyl]amino}-8-fluorochromane-5-carboxamide]
- Emax (5-HT1A receptor [1]): 0%
- Ki (5-HT1A receptor [2]; [4]): 83.8 nM
- Ki (serotonin transporter; [5]): 768 nM
- EC50 [3]: 1200 nM
- Emax [3, 6]: 70%

Structure (SMILES): COC(=O)c1ccc(F)c2c1C[C@H](NCCCCc1c[nH]c3ccc(F)cc13)CO2 [Compound 57a, Methyl (3S)-8-fluoro-3-{[4-(5-fluoro-1H-indol-3-yl)butyl]amino}chromane-5-carboxylate]
- EC50 (5-HT1A receptor [1]): 337 nM
- Emax (5-HT1A receptor [1]): 81%
- Ki (5-HT1A receptor [2]; [4]): 113 nM
- Ki (serotonin transporter; [5]): 4.21 nM
- EC50 [3]: 1750 nM
- Emax [3, 6]: 96%

Structure (SMILES): CCCN(C(C)CCCc1c[nH]c2ccc(F)cc12)C1COc2c(F)ccc(C(N)=O)c2C1 (single isomer, unassigned; (-)) [Compound 14b, (−)-8-fluoro-3-[[4-(5-fluoro-1H-indol-3-yl)-1-methylbutyl](propyl)amino]chromane-5-carboxamide]
- IC50 (5-HT1A receptor [1]): 110 nM
- 5-HT1A Function cAMP (Emax) (5-HT1A receptor [1]): 0%
- Ki (5-HT1A receptor [2]; [4]): 1.88 nM
- Ki (serotonin transporter; [5]): 9.5 nM
- IC50 [3]: 477 nM
- 5-HT1A Function GTPγS (Imax) ([3]; maximum inhibitory effect, in brackets after IC50): 100%

Structure (SMILES): CNC(=O)c1ccc(F)c2c1CC(N(CCCc1c[nH]c3ccc(F)cc13)CC1CC1)CO2 (centres unmarked) [Compound 91, 3-{(cyclopropylmethyl)[3-(5-fluoro-1H-indol-3-yl)propyl]amino}-8-fluoro-N-methylchromane-5-carboxamide]
- IC50 (5-HT1A receptor [1]): 88.3 nM
- Emax (5-HT1A receptor [1]): 0%
- Ki (5-HT1A receptor [2]; [4]): 2.28 nM
- Ki (serotonin transporter; [5]): 3.33 nM
- IC50 [3]: 191 nM
- Emax [3, 7]: 77%

Structure (SMILES): CCCN(CCCc1c[nH]c2ccc(F)cc12)C1COc2c(F)ccc(C(=O)NC)c2C1 (centres unmarked) [Compound 90, 8-fluoro-3-[[3-(5-fluoro-1H-indol-3-yl)propyl](propyl)amino]-N-methylchromane-5-carboxamide]
- IC50 (5-HT1A receptor [1]): 73.8 nM
- Emax (5-HT1A receptor [1]): 0%
- Ki (5-HT1A receptor [2]; [4]): 0.81 nM
- Ki (serotonin transporter; [5]): 3.37 nM
- EC50 [3]: 34.5 nM
- IC50 [3]: 617 nM
- Emax [3, 7]: 33%
- Emax [3, 6]: 47%

Structure (SMILES): CCN(CCCc1c[nH]c2ccc(F)cc12)C1COc2cccc(C(N)=O)c2C1 (centres unmarked) [Compound 149, 3-{ethyl[3-(5-fluoro-1H-indol-3-yl)propyl]amino}chromane-5-carboxamide]
- EC50 (5-HT1A receptor [1]): 3.65 nM
- Emax (5-HT1A receptor [1]): 70%
- Ki (5-HT1A receptor [2]; [4]): 2.72 nM
- Ki (serotonin transporter; [5]): 9.25 nM
- EC50 [3]: 44.9 nM
- Emax [3, 6]: 79%
